What all share (assay type): binding
In test [1] the target is T1, CagFbFP (Q89E variant: LSSFbFP) (Chloroflexus aggregans, UniProt B8GAY9, C85A/Q89E).
T1 construct: gene Cagg_3753; C85A background inferred from printed I52V-A85Q and known biology
T1 sequence (B8GAY9 47-153 C85A/Q89E): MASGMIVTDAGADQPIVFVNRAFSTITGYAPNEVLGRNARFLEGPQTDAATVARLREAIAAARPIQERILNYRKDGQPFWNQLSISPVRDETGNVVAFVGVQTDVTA
Description: melting curve by flavin fluorescence in real-time PCR cycler. Conditions: Tm of the complex, not a shift.

Test [2] concerns the target T1, CagFbFP (Q89E variant: LSSFbFP). The experiment in a line: chromophore dissociation constant measurement, details in cited reference; crystal structure of complex.
Test [3] shares this target. The experiment in a line: melting curve by flavin fluorescence in real-time PCR cycler. Conditions: Tm of the complex, not a shift. The source holds these as a separate data set.

For orientation: Kd means the free concentration of one partner at which half of the binding sites on the other are occupied at equilibrium, for simple one-to-one binding. A higher Kd goes with weaker binding. For `Cc1cc2nc3[nH]c(=O)[nH]c(=O)c3nc2cc1C` [LC, lumichrome], the thermal stability in test [1] was found to be 58 °C. This molecule also displayed a dissociation constant Kd in test [2] of 900 ± 300 nM.

With `Cc1cc2nc3c(=O)[nH]c(=O)nc-3n(C[C@H](O)[C@H](O)[C@H](O)COP(=O)(O)O)c2cc1C` [FMN, flavin mononucleotide], the denaturation temperature in test [3] was found to be 81 °C. The molecule further registered a Kd in test [2] of 360 ± 50 nM.

(Values after paper doi:10.1101/2025.06.07.658458v1, “Discovery of excited state proton transfer in flavin-based fluorescent protein with large Stokes shift” (biorxiv, 2025).)
